Measured values: patent US20120303115A1 (priority 2011, published 2012)
Blank lines part the entries; values can stand above or below the compound they belong to.

How the values were obtained:
[1] = Percent drug content change of coated cobalt-chromium stent, 0 to 12 weeks (FIG. 1); type: physicochemical; details: 0.02 weight percent BHT per total basecoat solids; sirolimus and polymer on 18 mm stent; 8 weeks and 12 weeks, ambient conditions (25° C.)
Excerpt: Referring to FIG. 1, there is illustrated in graphical format, the results of the same drug screening as described above with the solution applied to a cobalt-chromium, 18 mm stent. In this test, two sets of solution samples were utilized, one with sirolimus and polymer solution containing the antioxidant and one with sirolimus and polymer solution containing no antioxidant. The antioxidant utilized was 0.02 weight percent BHT per total basecoat solids. The test was utilized to determine the percent drug content change over a time period of 0 to 12 weeks under two conditions; namely, 40° C. with 75 percent relative humidity, and ambient conditions (25° C.).

[2] = Procedure: Table 9, shown below, summarizes a number of injectable liquid formulations of paclitaxel utilizing combinations of ethanol, PEG 400 and water. Specifically, the formulations set forth in Table 9 were made and analyzed for their concentrations of its various constituents. The concentrations are determined by liquid chromatography and are presented as weight by volume figures. The concentration of ethanol is preferably two or less percent so as to avoid ethanol becoming an active ingredient in the formulation.
Another aqueous liquid or injectable formulation of paclitaxel is made utilizing ethanol, PEG 400 and water, and ethanol, Vitamin E TPGS, PEG400 and water. In making the first formulation, 100 mg of paclitaxel is added to 400 μl of ethanol in a pre-weighed 20 ml scintillation vial. The mixture of paclitaxel and ethanol is vortexed and heated in a 60 degree C. bath for ten minutes. Once the drug is completely solubilized, 20 ml of PEG 400 is then added to make the final paclitaxel concentration 5 mg/ml. […] In a separate experiment, a series of 20 ml scintillation vials containing Vitamin E TPGS are heated or warmed up in a 50 degree C. water bath for ten minutes. Concurrently, distilled water is also warmed in a 50 degree C. water bath. […]

[3] = Drug concentration in liquid formulations by liquid chromatography; type: physicochemical; details: water, Vitamin E TPGS as excipient, ethanol less than two percent
Procedure: Table 7, shown below, summarizes the concentrations of the excipient, the co-solvents and the drug for four different liquid formulations.
Another liquid formulation of sirolimus comprises water and ethanol as co-solvents and Vitamin E TPGS as the excipient. The liquid formulation was created utilizing the following process. Two hundred milligrams of sirolimus and two grams of ethanol were added to a pre-weighed twenty milliliter scintillation vial. The vial was vortexed and sonicated until the sirolimus was completely dissolved. Approximately six hundred milligrams of Vitamin E TPGS was then added to the solution of ethanol and sirolimus. The vial was vortexed again until a clear yellowish solution was obtained. Nitrogen gas was then used to reduce the amount of ethanol in the vial to approximately two hundred twenty-nine milligrams. In a separate vial, three hundred milligrams of Vitamin E TPGS was dissolved in eleven milliliters of purified water while undergoing vortexing. The Vitamin E TPGS and water solution was then added to the first vial containing the sirolimus, Vitamin E TPGS and ethanol. The first vial was then vortexed vigorously and continuously for three minutes. […] The foam gradually disappeared after sitting at room temperature.
An aqueous formulation of CCl-779, a sirolimus analog, is prepared utilizing ethanol, Vitamin E TPGS and water. […]

drug degradation (percent drug content change) [1]: lessens drug degradation
Compound: Cc1cc(C(C)(C)C)c(O)c(C(C)(C)C)c1 [BHT, butylated hydroxytoluene]

concentration relative to the solubility of paclitaxel in water [2]: about 1000 fold | paclitaxel concentration of true aqueous liquid formulations [2]: up to 2.5 mg/ml
Compound: CC(=O)O[C@H]1C(=O)[C@@]2(C)[C@H]([C@H](OC(=O)c3ccccc3)[C@]3(O)C[C@H](OC(=O)[C@H](O)[C@@H](NC(=O)c4ccccc4)c4ccccc4)C(C)=C1C3(C)C)[C@]1(OC(C)=O)CO[C@@H]1C[C@@H]2O [paclitaxel]

concentration in the final solution (HPLC assay) [3]: 15000 µg/mL
Compound: CCl-779
